In US20090022806A1, “Nanoparticle and polymer formulations for thyroid hormone analogs, antagonists and formulations and uses thereof” (priority 2006, published 2009):
≈ marks a conversion by molar mass, not a printed value.

Experiments:
[1] = Solubility; format: physicochemical; conditions: in water after preparing a solution at 10^−1 M in DMSO
Experimental: Yield: 50%; off-white solid; recrist. solvt.: EtOH; TLC: Rf=0.43 (EtOAc/EtOH 9/1); RPTLC: Rf=0.43 (AcOH/H2O 8/2); mp=136° C.; IR (ν cm^−1): 1730 (CO); ^1H NMR (DMSO-d6) δ (ppm): 7.79 (s, 2H, ArH), 7.14 (s, 2H, ArH), 4.06-4.02 (m, 2H, CH2), 3.93-3.89 (q, J=7.0 Hz, 2H, CH2), 3.59-3.56 (t, J=7.0 Hz, 1H, CH), 2.80-2.77 (m, 2H, CH2), 1.88 (br, 1H, NH), 1.41-1.39 (t, J=7.0 Hz, 3H, CH3), 1.15-1.12 (t, J=7.0 Hz, 3H, CH3); MS (ESI+) m/z 911.7 [(M+DMSO)^+, 100], 833.7 [(M+H)+, 75]; Anal. Calcd. for C19H19I4NO4: C, 27.40; H, 2.30; N, 1.68. Found: C, 27.54; H, 1.94; N, 1.66. Solubility 10^−3 M in water after preparing a solution at 10^−1 M in DMSO. It is noteworthy that if a suspension of L-T4 is prepared overnight, the yield can be increased.

[2] = Doxorubicin-resistant tumor xenograft in nude mice; conditions: CD1 nude, mouse, in vivo
Experimental: (§1) Strain CD1 nude mice were obtained from Charles River Laboratories (Wilmington, Mass.) at approximately 5-6 weeks of age and weighing approximately 30 g. Animals received s.c. implantation of doxorubicin-resistant MCF7/R cells (10^6 cells in 100 μl). When tumors were approximately 50 mm^3 in size, the animals were pair matched and divided into four groups of five mice as follows: a) vehicle treated controls, b) mice treated with tetrac (30 mg/kg), c) mice treated doxorubicin (2 mg/kg), d) mice treated with the combination of both drugs. A total of three injections (separated by 3 days) were performed. Mice were weighed, checked for clinical signs of drug toxicity and lethality. Tumor measurements were made with a caliper three times weekly for up to 3 weeks and converted to tumor volume by using the formula W×L^2/2. Tumor growth curves were generated.

[3] = system: doxorubicin-resistant MCF7/R cells; assay: Doxorubicin-resistant tumor xenograft in nude mice; conditions: doxorubicin alone 2 mg/kg, three injections
Experimental: as §1

[4] = system: NG108-15 cells; assay: cells; conditions: Homo sapiens, NG108-15, read-out: Half maximal inhibition of cell-cell adhesion
[5] = system: EC migration toward the extracellular matrix protein vitronectin; assay: Cellular migration assay toward vitronectin (chemotaxis chamber); format: cell-based; conditions: Vitronectin 25 ug in lower chamber alone
Experimental: These assays were performed using a Neuroprobe 96 well disposable chemotaxis chamber with an 8 μm pore size. This chamber allowed for quantitation of cellular migration towards a gradient of either vitronectin or osteopontin. Cultured cells were removed following a standardized method using EDTA/Trypsin (0.01%/0.025%). Following removal, the cells were washed twice and resuspended (2×10^6/ml) in EBM (Endothelial cell basal media, Clonetics Inc.). Add either vitronectin or osteopontin (33 μl) at 0.0125-100 μg/ml to the lower wells of a disposable chemotaxis chamber, and then assemble using the preframed filter. The cell suspension (45 μl) was added to a polypropylene plate containing 5 μl of test agent at different concentrations and incubated for 10 minutes at 22° C. Add 25 μl of cell/test agent suspension to the upper filter wells then incubate overnight (22 hours at 37° C.) in a humidified cell culture incubator. After the overnight incubation, non-migrated cells and excess media were gently removed using a 12 channel pipette and a cell scraper. The filters were then washed twice in PBS (no Ca^+2 or Mg^+2) and fixed with 1% formaldehyde. Membranes of migrated cells were permeated with Triton X-100 (0.2%) then washed 2-3 times with PBS. […] Chemotaxis was quantitatively determined by fluorescence detection using a Cytofluor II (530 excitation/590 emission).

Question: With `CC(C)(C)OC(=O)NC(Cc1cc(I)c(Oc2cc(I)c(O)c(I)c2)c(I)c1)C(=O)O` (stereo not drawn) [PRIAB1, 2-[(tert-butoxycarbonyl)amino]-3-[4-(4-hydroxy-3,5-diiodophenoxy)-3,5-diiodophenyl]propanoic acid] as the molecule, how does the melting point read?
Answer: 212 °C

Question: With `CCNC(Cc1cc(I)c(Oc2cc(I)c(O)c(I)c2)c(I)c1)C(=O)OCC` (stereo not drawn) [PRIAB20, ethyl-2-(ethylamino)-3-[4-(4-hydroxy-3,5-diiodophenoxy)-3,5-diiodophenyl]propanoate] as the molecule, how does the solubility [1] read?
Answer: 1000 µM (≈ 833 µg/mL)

Question: What does the source list for `COc1cccc2c1C(=O)c1c(O)c3c(c(O)c1C2=O)C[C@@](O)(C(=O)CO)C[C@@H]3O[C@H]1C[C@H](N)[C@H](O)[C@H](C)O1` [doxorubicin]?
Answer: MTD [2]: 2.5 mg/kg; effect on tumor growth [3]: no noticeable effect

Question: With `CCO` [ethanol] as the molecule, how does the IC50 [4] read?
Answer: 5 to 10 mM

B1: Vitronectin: extracellular matrix protein used as migration gradient (protein, UniProt P04004 20-478, looked up)
Vitronectin: DQESCKGRCTEGFNVDKKCQCDELCSYYQSCCTDYTAECKPQVTRGDVFTMPEDEYTVYDDGEEKNNATVHEQVGGPSLTSDLQAQSKGNPEQTPVLKPEEEAPAPEVGASKPEGIDSRPETLHPGRPQPPAEEELCSGKPFDAFTDLKNGSLFAFRGQYCYELDEKAVRPGYPKLIRDVWGIEGPIDAAFTRINCQGKTYLFKGSQYWRFEDGVLDPDYPRNISDGFDGIPDNVDAALALPAHSYSGRERVYFFKGKQYWEYQFQHQPSQEECEGSSLSAVFEHFAMMQRDSWEDIFELLFWGRTSAGTRQPQFISRDWHGVPGQVDAAMAGRIYISGMAPRPSLAKKQRFRHRNRKGYRSQRGHSRGRNQNSRRPSRATWLSLFSSEESNLGANNYDDYRMDWLVPATCEPIQSVFFFSGDKYYRVNLRTRRVDTVDPPYPRSIAQYWLGCPAPGHL
Question: With B1 as the molecule, how does the “Mean EC Migration (Fluorescence Units) + SD” value [5] read?
Answer: 6,116 ± 185 Fluorescence Units
